The values that follow come from US12503473B2, “Triazolopyrimidine compounds and their use in treating cancer” (Dizal (Jiangsu) Pharmaceutical Co., Ltd., priority 2018, dated 2025).

The subject of test [1] is NCI H358 subcutaneous xenograft. The test is described as follows: Human lung cancer xenograft model, VEGFR TKI combination. It counts as in vivo, female nude mice. The protocol:
The in vivo efficacy of MCT4 inhibitors has been tested in human xenograft models. The NSCLC cell line NCI H358 can be grown as a subcutaneous xenograft in female nude mice and tumour volume calculated from bilateral caliper measurements. For efficacy studies three million NCI H358 cells were inoculated sub-cutaneously onto the left flank of the animal in a volume of 0.1 ml serum free media (RPMI) and matrigel. Animals were assigned into treatment groups 14 days after cell implantation and received either AZD2171 (3 mg/kg QD) (Wedge et al., (2005) Cancer Res. 65:4389-4400), a compound of Formula (I) (100 mg/kg BID) or the combination of both by oral gavage. A vehicle control of 0.5% hydroxy propyl methyl cellulose/0.1% Tween 80 was dosed twice daily given orally. Dosing was continued for 17 days and tumour volume, body weight and tumour condition were recorded twice weekly for the duration of the study.

Test [2] relates to MC38 MCT1 KO murine colorectal cell line. In words: Mouse syngeneic model, αCTLA4 antibody combination (first study, FIG. 4). To be noted: Day 15. In kind it is in vivo, female C57·B16 mice. From the text: The in vivo efficacy of MCT4 inhibitors has been tested in murine syngeneic models. To test the selective impact of MCT4 inhibitors of Formula (I), MCT1 was knocked-out (KO) of the MC38 syngeneic cell line model using CRISPR precise genome editing. The MC38 MCT1 KO murine colorectal cell line can be grown sub-cutaneously in female C57·B16 mice and tumour volume calculated from bilateral caliper measurements. For efficacy studies, ten million cells were inoculated subcutaneously onto the left flank of the animal in a volume of 0.1 ml serum free DMEM media. Animals were randomised by bodyweight at the time of cell implantation and treatment started the following day. In the first of these studies shown in FIG. 4, monotherapy treatment arms received either a compound of Formula (I) (100 mg/kg BID) by oral gavage or αCTLA4 antibody (anti-CTLA-4 9D9 mlgG1 antibody, described in WO200712373) (10 mg/kg twice weekly) intraperitoneally. Combination groups consisted of a compound of Formula (I) (100 or 10 mg/kg PO BID) with αCTLA4 antibody (10 mg/kg IP twice weekly). In the second of these studies shown in FIG. 5, monotherapy treatment arms received either a compound of Formula (I) (30 mg/kg PO BID) with αPD-1 antibody (from Bio X Cell, Catalogue #BE0146, Lot 665417s1, 6.78 mg/mL) (10 mg/kg IP twice weekly). In both studies dosing was continued for up to 6 weeks and tumour volume, body weight and tumour condition were recorded three times weekly. Vehicle was 0.5% hydroxy propyl methyl cellulose/0.1% Tween 80 given twice daily by oral gavage with PBS/a given twice weekly intraperitoneally in both studies.
Individual tumour growth profiles are shown with animals taken off study using time to event criteria based on a maximum tumour volume of 1.5 cm^3, tumour condition or animal welfare limits. Due to animals coming off study during the later stages of the experiment, GeoMean percentage inhibition values were calculated on Day 15. […] Monotherapy αCTLA4 (10 mg/kg) was ineffective with 6.1%^NS.

For test [3], the target named is T1, MCT1 (Homo sapiens, UniProt P53985).
T1 construct: a human erythroleukemia line predominantly expressing MCT1, a small amount of MCT2 and no MCT4; host or cells: K562
T1 sequence (P53985 1-500): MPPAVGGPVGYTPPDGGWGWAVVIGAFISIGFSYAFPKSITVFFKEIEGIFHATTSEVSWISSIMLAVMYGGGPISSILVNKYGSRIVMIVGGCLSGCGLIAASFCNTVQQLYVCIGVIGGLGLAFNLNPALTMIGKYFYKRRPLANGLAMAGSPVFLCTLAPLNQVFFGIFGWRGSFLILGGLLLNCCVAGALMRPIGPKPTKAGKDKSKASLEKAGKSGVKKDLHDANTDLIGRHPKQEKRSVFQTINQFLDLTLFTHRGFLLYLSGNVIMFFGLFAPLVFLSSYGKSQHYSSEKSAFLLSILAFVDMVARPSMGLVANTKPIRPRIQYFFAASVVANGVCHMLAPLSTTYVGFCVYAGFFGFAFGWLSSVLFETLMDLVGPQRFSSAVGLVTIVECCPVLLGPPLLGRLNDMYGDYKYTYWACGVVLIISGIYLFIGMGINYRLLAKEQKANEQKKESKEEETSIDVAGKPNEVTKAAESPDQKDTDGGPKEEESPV
In words: Assay (c): FLIPR BCECF lactate influx in K562 cells. It counts as cell-based. The following applies: mean of at least three repeats, read-out: MCT1 FLIPR pIC50 (K562) (converted).
Description: (§1) Cells were loaded with the pH sensitive dye BCECFAM(Invitrogen #B11150) before being washed to remove excess dye and seeded into the assay plates—directly onto the test compound—at a density of 15,000 cells/well (NCI—H358) or 30,000 cells/well (K562), in 30 μl HBSS with 1 mM [final] […] Assay plates were lidded and spun in a plate centrifuge at 170 g for 1 minute. Plates were then wrapped in foil and incubated in the dark for 1 hour at room temperature.
(§2) Following incubation with test compound, 10 μl of 25 mM Sodium-L-Lactate (Sigma #L7022) made up in HBSS with 1 mM [final] […] This addition was performed directly on the FLIPR Tetra platform (Molecular Devices) as part of a real-time kinetic read protocol. […] A percentage change from base-line was calculated for each test well and values normalised to control wells—treated with either DMSO (maximum assay signal) or chemistry related to that described in this patent (minimum assay signal)—before fitting concentration response curves to determine an IC50 value.

Test [4] deals with MC38 MCT1 KO murine colorectal cell line. The test is described as follows: Mouse syngeneic model, αPD-1 antibody combination (second study, FIG. 5). In kind it is in vivo, female C57·B16 mice. The following applies: Day 13. The source says: The in vivo efficacy of MCT4 inhibitors has been tested in murine syngeneic models. To test the selective impact of MCT4 inhibitors of Formula (I), MCT1 was knocked-out (KO) of the MC38 syngeneic cell line model using CRISPR precise genome editing. The MC38 MCT1 KO murine colorectal cell line can be grown sub-cutaneously in female C57·B16 mice and tumour volume calculated from bilateral caliper measurements. For efficacy studies, ten million cells were inoculated subcutaneously onto the left flank of the animal in a volume of 0.1 ml serum free DMEM media. Animals were randomised by bodyweight at the time of cell implantation and treatment started the following day. […] In both studies dosing was continued for up to 6 weeks and tumour volume, body weight and tumour condition were recorded three times weekly. […]
Again, individual tumour growth profiles are shown with animals taken off study using time to event criteria based on a maximum tumour volume of 1.5 cm^3, tumour condition or animal welfare limits. Due to animals reaching the time to event endpoint at different times during the later stages of the experiment GeoMean percentage inhibition values were calculated on Day 13.

The target of test [5] is T2, MCT4 (Homo sapiens, UniProt O15427).
T2 sequence (O15427 1-465): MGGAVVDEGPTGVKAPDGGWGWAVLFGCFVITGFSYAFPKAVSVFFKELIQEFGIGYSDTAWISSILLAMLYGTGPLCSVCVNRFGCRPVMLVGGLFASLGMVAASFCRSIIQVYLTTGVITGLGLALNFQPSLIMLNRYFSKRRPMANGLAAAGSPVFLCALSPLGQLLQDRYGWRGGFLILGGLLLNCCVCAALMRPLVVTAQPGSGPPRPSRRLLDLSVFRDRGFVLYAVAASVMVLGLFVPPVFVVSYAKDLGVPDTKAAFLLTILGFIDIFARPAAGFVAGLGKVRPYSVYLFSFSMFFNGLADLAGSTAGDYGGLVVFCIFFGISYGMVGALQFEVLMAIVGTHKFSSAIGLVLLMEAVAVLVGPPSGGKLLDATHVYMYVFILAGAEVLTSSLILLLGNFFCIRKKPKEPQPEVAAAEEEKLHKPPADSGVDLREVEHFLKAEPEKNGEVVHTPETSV
The test is described as follows: Assay (a): lactate efflux from SK-Br-3 cells (lactate in media, 4 h). In kind it is cell-based. Further details: a natively glycolytic human breast adenocarcinoma line predominantly expressing MCT4; host or cells: SK-Br-3. The following applies: mean of at least three repeats (Example 32, marked *, two repeats), read-out: MCT4 lactate efflux pIC50 (SKBR3) (converted). The protocol:
Assay plates were lidded and incubated for 4 hours at 37° C. and 5% CO2.

The target in test [6] is T2, MCT4. The test is described as follows: Assay (d): FLIPR BCECF lactate influx in INS-1 MCT4 cells. In kind it is cell-based, rat. On the set-up: expressed in transfected cells. The following applies: INS-1 cells stably expressing human MCT4; mean of at least three repeats; read-out: MCT4 FLIPR pIC50 (INS-1) (converted). On the procedure:
INS-1 MCT4 cells were generated through transfection of the parental cell background with the following DNA sequence, inserted into a pcDNA3.1 (ThermoFisher #V79020) mammalian expression vector:
The resultant cell pool was continually cultured at 37° C. and 5% CO2 under antibiotic selection in RPMI (Sigma #R0883) medium containing 1% L glutamine (Sigma #G7513), 10% FBS (Sigma #F7524), 10 mM [final] […] An individual clone was selected and expanded before being cryopreserved in a number of individual vials for continued use. Prior to testing in the biological assay, an individual INS-1 MCT4 cryovial was defrosted and continually passaged over a number of weeks—in the Geneticin selection media described previously—to obtain the requesite cell number.

For test [7], the target named is T2, MCT4. In words: cell-based.
Description: as §1, §2

The structures appear in SMILES notation.

As to `COc1cc2c(Oc3ccc4[nH]c(C)cc4c3F)ncnc2cc1OCCCN1CCCC1` [AZD2171, reference compound], the “tumour regression compared to the vehicle group” value in test [1] (AZD2171 alone 3 mg/kg QD oral, 17 days dosing, p<0.001) is 33%.

On to `Cc1nc2nc(C)c(O[C@@H]3CCN(c4ccc(-c5ccc(CN6CCOCC6)nn5)cc4)C3)c(C)n2n1` [Example 62, (R)-4-((6-(4-(3-((2,5,7-trimethyl-[1,2,4]triazolo[1,5-a]pyrimidin-6-yl)oxy)pyrrolidin-1-yl)phenyl)pyridazin-3-yl)methyl)morpholine], for which the “GeoMean percentage growth inhibition vs vehicle control” value was 67.4% in test [2] (Example 62 10 mg/kg PO BID with αCTLA4 antibody 10 mg/kg IP twice weekly, p≤0.01); 82.2% in test [2] (Example 62 100 mg/kg PO BID with αCTLA4 antibody 10 mg/kg IP twice weekly, p≤0.001, p=0.0311 vs Example 62 alone); 60.0% in test [2] (Example 62 monotherapy 100 mg/kg BID PO, p≤0.05); 82.3% in test [4] (Example 62 30 mg/kg PO BID with αPD-1 antibody 10 mg/kg IP twice weekly, p≤0.001); 30.1% in test [4] (Example 62 monotherapy 30 mg/kg PO BID, NS). Further, the IC50 in test [3] was more than 25100 nM. Moreover, the tumour regression in test [1] (combination of AZD2171 (3 mg/kg QD) with Example 62 (100 mg/kg BID), oral, 17 days, p<0.001 vs control, p=0.013 vs AZD2171 alone) amounted to 72%.

For the compound `Cc1nc2nc(C)c(O[C@@H]3CCN(c4ccc(-c5ccc(CN6CCCOCC6)nn5)cc4)C3)c(C)n2n1` [Example 84, (R)-4-((6-(4-(3-((2,5,7-trimethyl-[1,2,4]triazolo[1,5-a]pyrimidin-6-yl)oxy)pyrrolidin-1-yl)phenyl)pyridazin-3-yl)methyl)-1,4-oxazepane], the IC50 in test [5] is 1 nM; in test [3], more than 25100 nM; in test [6], 3.98 nM; in test [7] it was 7.94 nM.

With `Cc1nc2nc(C)c(O[C@@H]3CCN(c4ccc(-c5ccc(CN6CCCCCC6)nn5)cc4)C3)c(C)n2n1` [Example 85, (R)-6-((1-(4-(6-(azepan-1-ylmethyl)pyridazin-3-yl)phenyl)pyrrolidin-3-yl)oxy)-2,5,7-trimethyl-[1,2,4]triazolo[1,5-a]pyrimidine], the IC50 in test [5] is 1.26 nM; in test [3], more than 25100 nM; in test [6], 6.31 nM; in test [7], 20 nM.
